Reference: patent publication US8952024B2, “Herbicidal pyrimidone derivatives” (E I du Pont de Nemours and Company, priority 2009, dated 2015)

Key:
Format in all cases: in vivo
[1] = test system: pigweed (Amaranthus retroflexus); test: Test A pre-/postemergence plant response
Summary of the method: (§1)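 Seeds planted in loam soil/sand blend; test chemicals in non-phytotoxic solvent mixture with surfactant applied as directed soil spray preemergence and, concurrently, postemergence to plants 2–10 cm tall at one- to two-leaf stage. Greenhouse ~10 days; visual injury vs untreated controls, 0 (no effect) to 100 (complete control).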

[2] = test system: velvetleaf (Abutilon theophrasti); test: Test A pre-/postemergence plant response
Summary of the method: as §1

[3] = test system: wheat (Triticum aestivum); test: Test A pre-/postemergence plant response
Summary of the method: as §1

[4] = test system: morningglory (Ipomoea spp.); test: Test A pre-/postemergence plant response
Summary of the method: as §1

[5] = test system: large crabgrass (Digitaria sanguinalis); test: Test A pre-/postemergence plant response
Summary of the method: as §1

[6] = test system: barnyardgrass (Echinochloa crus-galli); test: Test A pre-/postemergence plant response
Summary of the method: as §1

[7] = test system: giant foxtail (Setaria faberii); test: Test A pre-/postemergence plant response
Summary of the method: as §1

[8] = test system: corn (Zea mays); test: Test A pre-/postemergence plant response
Summary of the method: as §1

[9] = test system: umbrella sedge (Cyperus difformis); test: Test B flooded paddy test; details: for Plant response rating, Flood, Sedge, Umbrella: 250 g ai/ha, flooded paddy test, visual rating on 0 to 100 scale (0 no effect, 100 complete control) after 13 to 15 days; for Plant response rating, Sedge, Umbrella: Flood (flooded paddy test), 13 to 15 days; for Sedge, Umbrella plant response rating: Flood, 31 g ai/ha, scale 0 to 100 (0 no effect, 100 complete control)
Summary of the method: (§2)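 Visual scores run from 0 (no effect) to 100 (complete control), assigned by comparison with controls 13 to 15 days after treatment. Test compounds went straight into water standing 3 cm above the soil, around plants at the 2-leaf stage kept in a greenhouse.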

[10] = test system: rice (Oryza sativa); test: Test B flooded paddy test; details: for Plant response rating, Flood, Rice: 250 g ai/ha, flooded paddy test, visual rating on 0 to 100 scale (0 no effect, 100 complete control) after 13 to 15 days; for Plant response rating, Rice: Flood (flooded paddy test), 13 to 15 days; for Rice plant response rating: Flood, 31 g ai/ha, scale 0 to 100 (0 no effect, 100 complete control)
Summary of the method: as §2

[11] = test system: barnyardgrass (Echinochloa crus-galli); test: Test B flooded paddy test; details: for Plant response rating, Flood, Barnyardgrass: 250 g ai/ha, flooded paddy test, visual rating on 0 to 100 scale (0 no effect, 100 complete control) after 13 to 15 days; for Plant response rating, Barnyardgrass: Flood (flooded paddy test), 13 to 15 days; for Barnyardgrass plant response rating: Flood, 31 g ai/ha, scale 0 to 100 (0 no effect, 100 complete control)
Summary of the method: as §2

[12] = test system: ducksalad (Heteranthera limosa); test: Test B flooded paddy test; details: for Plant response rating, Flood, Ducksalad: 250 g ai/ha, flooded paddy test, visual rating on 0 to 100 scale (0 no effect, 100 complete control) after 13 to 15 days; for Plant response rating, Ducksalad: Flood (flooded paddy test), 13 to 15 days; for Ducksalad plant response rating: Flood, 31 g ai/ha, scale 0 to 100 (0 no effect, 100 complete control)
Summary of the method: as §2

[13] = test system: winter barley (Hordeum vulgare); test: Test B postemergence plant response; details: for Barley plant response rating (0 to 100 scale): 62 g ai/ha, postemergence, 0 is no effect, 100 is complete control; for Plant response rating, Barley: Postemergence
Summary of the method: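 Visual ratings from 0 (no effect) to 100 (complete control), made against controls 13–15 days after treatment, kept in a greenhouse. Compounds were applied postemergence to potted plants at the 1- to 4-leaf stage (2–18 cm).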

[14] = Postemergence, 125 g ai/ha, 0 to 100 scale where 0 is no effect and 100 is complete control
[15] = Postemergence, 500 g ai/ha, 0 to 100 scale, 0 = no effect, 100 = complete control, approx. ten days
[16] = Preemergence, 125 g ai/ha, 0 to 100 scale, 0 = no effect, 100 = complete control
[17] = Preemergence, 500 g ai/ha, visual injury, 0 to 100 scale (0 no effect, 100 complete control), approx. ten days
[18] = Preemergence, 500 g ai/ha, 0 to 100 scale, 0 = no effect, 100 = complete control
[19] = 62 g ai/ha, scale of 0 to 100 where 0 is no effect and 100 is complete control
[20] = 125 g ai/ha, scale 0 to 100, 0 is no effect, 100 is complete control
[21] = 31 g ai/ha, 0 to 100 scale (0 no effect, 100 complete control)
[22] = 125 g ai/ha, scale 0 to 100 (0 no effect, 100 complete control)
[23] = 250 g ai/ha, scale 0 to 100 (0 no effect, 100 complete control), 13 to 15 days
[24] = Postemergence, 500 g ai/ha, visual injury, 0 to 100 scale (0 no effect, 100 complete control), approx. ten days

CCCn1c(-c2cc(C)cc(C)c2)ncc(C(=O)C2=C(O)CCCC2=O)c1=O [Compound 156]
70: Plant response rating, Pigweed [1, 16] | Plant response rating, Crabgrass, Large [5, 14]
100: Plant response rating, Pigweed [1, 14] | Plant response rating, Pigweed [1, 15] | Plant response rating, Velvetleaf [2, 14] | Plant response rating, Velvetleaf [2, 15] | Plant response rating, Morningglory [4, 14] | Plant response rating, Morningglory [4, 15] | Plant response rating, Flood, Sedge, Umbrella [9] | Plant response rating, Sedge, Umbrella [9, 20] | Plant response rating, Flood, Ducksalad [12]
95: Plant response rating, Sedge, Umbrella [9, 19]
30: Plant response rating, Rice [10, 19] | Rice plant response rating [10] | Plant response rating, Barley [13, 21]
90: Plant response rating, Barnyardgrass [6, 14] | Plant response rating, Barnyardgrass [6, 15] | Plant response rating, Foxtail, Giant [7, 15]
80: Plant response rating, Pigweed [1, 17] | Plant response rating, Crabgrass, Large [5, 15] | Plant response rating, Barnyardgrass [6, 17] | Plant response rating, Foxtail, Giant [7, 14] | Plant response rating, Ducksalad [12, 20]
40: Plant response rating, Barnyardgrass [11, 20]
60: Plant response rating, Flood, Barnyardgrass [11] | Plant response rating, Barley [13, 22]
50: Plant response rating, Velvetleaf [2, 18] | Plant response rating, Crabgrass, Large [5, 17] | Plant response rating, Foxtail, Giant [7, 17]
35: Plant response rating, Flood, Rice [10]
0: Plant response rating, Velvetleaf [2, 16] | Plant response rating, Wheat [3, 14] | Plant response rating, Wheat [3, 16] | Plant response rating, Wheat [3, 18] | Plant response rating, Morningglory [4, 16] | Plant response rating, Morningglory [4, 17] | Plant response rating, Barnyardgrass [6, 16] | Plant response rating, Corn [8, 16] | Sedge, Umbrella plant response rating [9] | Barnyardgrass plant response rating [11] | Ducksalad plant response rating [12]
20: Plant response rating, Wheat [3, 15] | Plant response rating, Corn [8, 14] | Plant response rating, Corn [8, 15] | Plant response rating, Corn [8, 17] | Plant response rating, Rice [10, 20] | Plant response rating, Barnyardgrass [11, 19]
10: Plant response rating, Crabgrass, Large [5, 16] | Plant response rating, Foxtail, Giant [7, 16]
65: Plant response rating, Ducksalad [12, 19]
45: Barley plant response rating (0 to 100 scale) ([13]; 13 to 15 days)
85: Plant response rating, Barley [13, 23]

Cc1ccc(Cl)cc1-n1c(-c2cccc(F)c2)ncc(C(=O)C2=C(O)CCCC2=O)c1=O [Compound 184]
30: Plant response rating, Crabgrass, Large [5, 16] | Plant response rating, Foxtail, Giant [7, 16]
90: Plant response rating, Pigweed [1, 18] | Plant response rating, Barnyardgrass [6, 14] | Plant response rating, Barnyardgrass [6, 18] | Plant response rating, Foxtail, Giant [7, 14] | Plant response rating, Foxtail, Giant [7, 18]
80: Plant response rating, Velvetleaf [2, 16] | Plant response rating, Crabgrass, Large [5, 14] | Corn plant response rating [8, 24] | Plant response rating, Sedge, Umbrella [9, 19] | Plant response rating, Sedge, Umbrella [9, 20]
25: Plant response rating, Flood, Barnyardgrass [11]
95: Plant response rating, Flood, Sedge, Umbrella [9] | Ducksalad plant response rating [12]
100: Plant response rating, Pigweed [1, 14] | Pigweed plant response rating [1, 24] | Plant response rating, Velvetleaf [2, 14] | Velvetleaf plant response rating [2, 24] | Plant response rating, Velvetleaf [2, 18] | Morningglory plant response rating [4, 24] | Crabgrass, Large plant response rating [5, 24] | Plant response rating, Crabgrass, Large [5, 18] | Barnyardgrass plant response rating [6, 24] | Foxtail, Giant plant response rating [7, 24] | Plant response rating, Flood, Ducksalad [12] | Plant response rating, Ducksalad [12, 19] | Plant response rating, Ducksalad [12, 20]
65: Sedge, Umbrella plant response rating [9]
50: Wheat plant response rating [3, 24] | Plant response rating, Morningglory [4, 14]
15: Plant response rating, Flood, Rice [10] | Plant response rating, Rice [10, 19] | Plant response rating, Rice [10, 20] | Rice plant response rating [10]
5: Plant response rating, Barley [13, 21]
70: Plant response rating, Pigweed [1, 16]
40: Barley plant response rating (0 to 100 scale) ([13]; 13 to 15 days)
20: Plant response rating, Barnyardgrass [6, 16] | Plant response rating, Corn [8, 18] | Plant response rating, Barnyardgrass [11, 20]
0: Plant response rating, Wheat [3, 14] | Plant response rating, Wheat [3, 16] | Plant response rating, Wheat [3, 18] | Plant response rating, Corn [8, 16] | Plant response rating, Barnyardgrass [11, 19] | Barnyardgrass plant response rating [11]
60: Plant response rating, Morningglory [4, 18] | Plant response rating, Barley [13, 22] | Plant response rating, Barley [13, 23]
10: Plant response rating, Morningglory [4, 16] | Plant response rating, Corn [8, 14]
